Measurements as given in the supplement of paper PMC10307832.

Key:
Assay in all cases: relative viability (nuclei count vs DMSO), 5 days (fraction); higher = more cells survive
[1] = test system: 201T
Summary of the method: (§1)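 The day after seeding in 1536-well plates, lung cancer cell lines were treated by pin tool with a single drug, or with a fixed anchor-drug dose together with five library-drug doses (not always all listed) in √10 steps. After 5 days, a combined fix-and-stain solution (final 0.05% Triton X-100, 1% formaldehyde, 1 ug/ml Hoechst) was added. Nuclei counted on 4× images gave relative viability as treated counts over vehicle counts, reported as the median of duplicate plates.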

[2] = test system: CAL-12T
Summary of the method: as §1

[3] = test system: COR-L 105
Summary of the method: as §1

[4] = test system: EKVX
Summary of the method: as §1

[5] = test system: EPLC-272H
Summary of the method: as §1

[6] = test system: H3255
Summary of the method: as §1

[7] = test system: HCC-15
Summary of the method: as §1

[8] = test system: HCC-44
Summary of the method: as §1

[9] = test system: HCC-827
Summary of the method: as §1

[10] = test system: HOP-62
Summary of the method: as §1

[11] = test system: LCLC-103H
Summary of the method: as §1

[12] = test system: NCI-H1355
Summary of the method: as §1

[13] = test system: NCI-H1437
Summary of the method: as §1

[14] = test system: NCI-H1755
Summary of the method: as §1

[15] = test system: NCI-H2009
Summary of the method: as §1

[16] = test system: NCI-H322M
Summary of the method: as §1

[17] = test system: NCI-H441
Summary of the method: as §1

[18] = test system: NCI-H520
Summary of the method: as §1

[19] = test system: NCI-H596
Summary of the method: as §1

[20] = test system: NCI-H647
Summary of the method: as §1

[21] = test system: PC-3 [JPC-3]
Summary of the method: as §1

[22] = test system: SK-LU-1
Summary of the method: as §1

[23] = test system: UMC-11
Summary of the method: as §1

## Nc1cccc2c1CN(C1CCC(=O)NC1=O)C2=O (stereo not given) [Lenalidomide] + C[C@@H](Oc1cc(-c2cnn(C3CCNCC3)c2)cnc1N)c1c(Cl)ccc(F)c1Cl [Crizotinib] (partner 1 µM)
[1]; first compound 0.253 µM
  relative viability: 1.05
[1]; first compound 0.8 µM
  relative viability: 1.02
[1]; first compound 2.53 µM
  relative viability: 1.04
[1]; first compound 8 µM
  relative viability: 1.05
[2]; first compound 0.253 µM
  relative viability: 0.617
[2]; first compound 0.8 µM
  relative viability: 0.587
[2]; first compound 2.53 µM
  relative viability: 0.692
[2]; first compound 8 µM
  relative viability: 0.857
[3]; first compound 0.253 µM
  relative viability: 0.905
[3]; first compound 0.8 µM
  relative viability: 0.716
[3]; first compound 2.53 µM
  relative viability: 0.986
[3]; first compound 8 µM
  relative viability: 1.12
[4]; first compound 0.253 µM
  relative viability: 0.978
[4]; first compound 0.8 µM
  relative viability: 1.05
[4]; first compound 2.53 µM
  relative viability: 1.09
[4]; first compound 8 µM
  relative viability: 0.998
[5]; first compound 0.253 µM
  relative viability: 0.838
[5]; first compound 2.53 µM
  relative viability: 0.802
[5]; first compound 8 µM
  relative viability: 0.8
[6]; first compound 0.253 µM
  relative viability: 0.79
[6]; first compound 0.8 µM
  relative viability: 0.885
[6]; first compound 2.53 µM
  relative viability: 0.872
[6]; first compound 8 µM
  relative viability: 0.946
[7]; first compound 0.253 µM
  relative viability: 0.809
[7]; first compound 2.53 µM
  relative viability: 1.03
[7]; first compound 8 µM
  relative viability: 0.799
[8]; first compound 0.253 µM
  relative viability: 0.823
[8]; first compound 0.8 µM
  relative viability: 0.663
[8]; first compound 2.53 µM
  relative viability: 0.857
[8]; first compound 8 µM
  relative viability: 0.832
[9]; first compound 0.253 µM
  relative viability: 1.02
[9]; first compound 0.8 µM
  relative viability: 1.02
[9]; first compound 2.53 µM
  relative viability: 0.964
[9]; first compound 8 µM
  relative viability: 1.06
[10]; first compound 0.253 µM
  relative viability: 0.859
[10]; first compound 0.8 µM
  relative viability: 0.507
[10]; first compound 2.53 µM
  relative viability: 0.938
[10]; first compound 8 µM
  relative viability: 0.74
[11]; first compound 0.253 µM
  relative viability: 1.03
[11]; first compound 0.8 µM
  relative viability: 0.965
[11]; first compound 2.53 µM
  relative viability: 1.05
[11]; first compound 8 µM
  relative viability: 0.904
[12]; first compound 0.253 µM
  relative viability: 1.04
[12]; first compound 0.8 µM
  relative viability: 0.956
[12]; first compound 2.53 µM
  relative viability: 1.26
[12]; first compound 8 µM
  relative viability: 0.923
[13]; first compound 0.253 µM
  relative viability: 1.01
[13]; first compound 0.8 µM
  relative viability: 0.917
[13]; first compound 2.53 µM
  relative viability: 1.02
[13]; first compound 8 µM
  relative viability: 0.938
[14]; first compound 0.253 µM
  relative viability: 0.828
[14]; first compound 0.8 µM
  relative viability: 0.85
[14]; first compound 2.53 µM
  relative viability: 0.9
[14]; first compound 8 µM
  relative viability: 0.821
[15]; first compound 0.253 µM
  relative viability: 1.07
[15]; first compound 0.8 µM
  relative viability: 1.03
[15]; first compound 2.53 µM
  relative viability: 1.12
[15]; first compound 8 µM
  relative viability: 1.1
[16]; first compound 0.253 µM
  relative viability: 0.911
[16]; first compound 0.8 µM
  relative viability: 0.9
[16]; first compound 2.53 µM
  relative viability: 0.914
[16]; first compound 8 µM
  relative viability: 0.996
[17]; first compound 0.253 µM
  relative viability: 0.612
[17]; first compound 0.8 µM
  relative viability: 0.693
[17]; first compound 2.53 µM
  relative viability: 0.726
[17]; first compound 8 µM
  relative viability: 0.778
[18]; first compound 0.253 µM
  relative viability: 0.794
[18]; first compound 0.8 µM
  relative viability: 0.777
[18]; first compound 2.53 µM
  relative viability: 0.857
[18]; first compound 8 µM
  relative viability: 0.752
[19]; first compound 0.253 µM
  relative viability: 1.1
[19]; first compound 0.8 µM
  relative viability: 0.912
[19]; first compound 2.53 µM
  relative viability: 1.08
[19]; first compound 8 µM
  relative viability: 0.938
[20]; first compound 0.253 µM
  relative viability: 1.08
[20]; first compound 0.8 µM
  relative viability: 1.04
[20]; first compound 2.53 µM
  relative viability: 1.22
[20]; first compound 8 µM
  relative viability: 1.14
[21]; first compound 0.253 µM
  relative viability: 0.933
[21]; first compound 0.8 µM
  relative viability: 0.936
[21]; first compound 2.53 µM
  relative viability: 1.02
[21]; first compound 8 µM
  relative viability: 1.09
[22]; first compound 0.253 µM
  relative viability: 1.05
[22]; first compound 0.8 µM
  relative viability: 1.06
[22]; first compound 2.53 µM
  relative viability: 0.867
[22]; first compound 8 µM
  relative viability: 0.852
[23]; first compound 0.253 µM
  relative viability: 0.61
[23]; first compound 0.8 µM
  relative viability: 0.573
[23]; first compound 2.53 µM
  relative viability: 0.601
[23]; first compound 8 µM
  relative viability: 0.644
